# Source: patent US20150166476A1, “METHODS FOR TREATING NEURODEGENERATIVE DISEASES ASSOCIATED WITH AGGREGATION OF AMYLOID-BETA” (priority 2013, published 2015)
# Entries after “also recorded” stand apart in the source; their conditions may differ.
# Assays:
# Aβ1-40 [1] = molecular target: T1, Aβ1-40 (Homo sapiens, UniProt P05067); assay: Peptide aggregation assay (Thioflavin-T fluorescence); assay type: biochemical; details: 25 μM Aβ1-40, 100 ng/mL compound, 37° C., day 5 (FIG. 1)
# T1 construct: Aβ1-40 peptide was synthesized in a solid-phase synthesizer; made in house; host or cells: chemical solid-phase peptide synthesis (no expression host)
# Method: Thioflavin-T (ThT) was used to monitor the aggregation state of Aβ1-40. 25 μM of Aβ1-40 was freshly diluted from the peptide stock solution in phosphate buffer (pH 7.4), for peptide aggregation assay. All samples containing a peptide concentration of 25 μM in the absence or presence of 100 ng/mL the compound of formula (I) and 3 μM ThT were incubated at 37° C. Samples containing either Aβ peptide only (control), or Aβ with the compound of formula (I), taking daily from day 0 to day 7, were used to measure the ThT sensitivity. The fluorescence measurement was performed on a microplate reader (FlexSTation 3, MD), with excitation and emission wavelength respectively set at 440 nm and 485 nm.
# In this example, the effects of the compound of formula (I) on the aggregation of Aβ1-40 were investigated using the Th-T fluorescence assay described above in the Material and Methods section. Results are depicted in FIG. 1.
# Aβ1-40 [2] = molecular target: T1, Aβ1-40; assay: FT-IR spectroscopy of the secondary structure of Aβ1-40; assay type: biochemical; details: day 1 and day 5 (FIG. 2)
# Method: The secondary structure of Aβ1-40 with or without the compound of formula (I) was investigated using FT-IR spectrometer (Jasco, FT-IR/4100) equipped with an attenuated reflection accessory to determine the conformation of Aβ1-40 during the aggregative process. 100 μL of 0.1 mM Aβ solution was coated on ZnSe crystals and dried overnight in a desiccators at room temperature. The spectra were recorded at 1,500 to 1,800 cm^−1 with a 1 cm^−1 interval. The peak was identified from the first derivation of the IR spectrum in the amide I region, and the secondary structure was analyzed using Original 6.0 software.
# It is known that during the aggregation process, the conformation of Aβ1-40 is converted to either […]. […] Results are depicted in FIG. 2.
# SH-SY5Y cells = assay: Cell viability assay (WST-1), Aβ1-40 induced cell death; assay type: cell-based, Human; details: for effect on Aβ1-40 induced cell death (cell viability): 25 μM Aβ1-40, 24 hr, compound at concentration below 100 ng/mL (FIG. 3)
# Method: Human […] SH-SY5Y cells were cultured in minimum essential medium supplemented with 10% (v/v) heat-inactivated fetal bovine serum, 50% (v/v) F-12 nutrient mixture, and 1% (v/v) antibiotic mixture comprised of penicillin and streptomycin. Cells were kept at 37° C. in a humidified atmosphere of 5% CO2. SH-SY5Y cells were plated at a density of 1×10^5 viable cells per well in 96-well plates for future analysis.
# The cell viability was determined by the WST-1 assay. […] of Aβ1-40 peptide stock solution were prepared by dissolving 1 mg Aβ1-40 in 1 mL trifluoroethanol and centrifuging to remove any insoluble particles. The peptide solution was then dried under nitrogen gas and re-dissolved in dimethyl sulfoxide, and incubated at 4° C. for 12 hr to provide the final peptide stock solution. For the viability assay, cells (1×10^5 cells/well in a 96-well microtiter plate) were treated with either 25 μM Aβ peptides only (as a positive control), or with the combination of 25 μM Aβ peptides and the compound of formula (I), in a concentration ranged from 1 to 1,000 ng/mL. The reaction was performed in a total volume of 200 μL per well for 24 hr at 37° C. in a humidified atmosphere containing 5% CO2 before cell viability was assayed. The WST-1 solution (10 μL) was added to each well, and the wells were incubated for another 4-5 hr at room temperature. The optical density was measured at 405 nm using a microplate reader.
# In this example, the effects of compounds of formula (I) on Aβ1-40 induced cell toxicity were investigated by cell viability assay.
# Aβ1-40 [3] = molecular target: T1, Aβ1-40; assay: Free radical assay (DCFH-DA), cell free; assay type: biochemical; details: 25 μM Aβ1-40, versus Aβ1-40 alone (FIG. 4)
# Method: The level of free radicals (H2O2) induced by Aβ1-40 peptide in cell free conditions was analyzed using the dichlorofluorescein diacetate (DCFH-DA) assay. DCF-DA was deacetylated with 50% (v/v) 0.05 M NaOH for 30 min and neutralized (pH 7.5) to a final concentration of 200 μM as a stock solution. This stock solution was kept on ice in the dark until future use. The reactions were carried out in a 96-well plate (200 μL/well) containing 25 μM of Aβ1-40 diluted from the stock solution, 20 μM deacetylated DCF, 5 μM horseradish peroxidase, in Dulbecco's phosphate-buffered saline, pH 7.5. To determine the inhibitory effects of the compound of formula (I) on free radical formation, various concentrations of the compound of formula (I) were added and incubated at 37° C. Fluoresence readings were recorded on a microplate reader (FlexSTation 3, MD) with the excitation wavelength of 485 nm and the emission wavelength of 530 nm. The fluorescence intensity of DCF (H2O2 level) was measured every 6 hr and from 0 to 72 hr.
# T1 sequence (P05067 672-711 limits assumed): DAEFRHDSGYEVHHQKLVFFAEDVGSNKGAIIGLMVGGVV
SMILES,effect on the aggregation of Aβ1-40 (Th-T fluorescence intensity) (Aβ1-40 [1]),"conformation of Aβ1-40 (FT-IR, 1650 cm^−1 random coil vs 1625 cm^−1 β-sheet) (Aβ1-40 [2])",effect on Aβ1-40 induced cell death (cell viability) (SH-SY5Y cells),Aβ1-40 induced free radical levels (DCF fluorescence intensity) (Aβ1-40 [3]),"cell survival rate (SH-SY5Y cells; 25 μM Aβ1-40, 1 ng/mL compound) [%]","cell survival rate (SH-SY5Y cells; 25 μM Aβ1-40, 100 ng/mL compound) [%]","cell survival rate (SH-SY5Y cells; 25 μM Aβ1-40, 1,000 ng/mL compound) [%]"
CC1=C(SCCO)C(=O)c2ccccc2C1=O [VK3-1],capable of enhancing the aggregation of Aβ1-40,converted to β-sheet structure,smaller effects,resulted even more free radicals as compared with the control,,,
CC1=C(SCCCO)C(=O)c2ccccc2C1=O [VK3-2],capable of preventing Aβ1-40 from aggregation,remained mostly in random coil conformation,smaller effects,resulted even more free radicals as compared with the control,,,
CC1=C(SCCCCO)C(=O)c2ccccc2C1=O [VK3-3],,converted to β-sheet structure,smaller effects,resulted even more free radicals as compared with the control,,,
CC1=C(SCCCCCCO)C(=O)c2ccccc2C1=O [VK3-4],capable of enhancing the aggregation of Aβ1-40,,smaller effects,,,,
CC1=C(SCCCCCCCCCCCO)C(=O)c2ccccc2C1=O [VK3-5],capable of enhancing the aggregation of Aβ1-40,converted to β-sheet structure,smaller effects,effectively inhibited,,,
CC1=C(SCCC(=O)O)C(=O)c2ccccc2C1=O [VK3-6],capable of preventing Aβ1-40 from aggregation; also recorded: most potent,remained mostly in random coil conformation,,,,,
CC1=C(SCC(C)O)C(=O)c2ccccc2C1=O (centres unmarked) [VK3-8],capable of preventing Aβ1-40 from aggregation,remained mostly in random coil conformation,smaller effects,resulted even more free radicals as compared with the control,,,
CC1=C(SCC(O)CO)C(=O)c2ccccc2C1=O (centres unmarked) [VK3-9],capable of preventing Aβ1-40 from aggregation; also recorded: most potent,remained mostly in random coil conformation,exhibited the ability of preventing Aβ1-40 induced cell death,effectively inhibited,50,88,92
O=C1C=C(SCCO)C(=O)c2ccccc21 [VK3-199],capable of preventing Aβ1-40 from aggregation,remained mostly in random coil conformation,smaller effects,resulted even more free radicals as compared with the control,,,
CC1=C(O)C(=O)c2ccccc2C1=O [VK3-221],capable of preventing Aβ1-40 from aggregation,remained mostly in random coil conformation,smaller effects,,,,
CC1=C(NCCN2CCOCC2)C(=O)c2ccccc2C1=O [VK3-224],capable of preventing Aβ1-40 from aggregation,remained mostly in random coil conformation,no difference from that of the control,,,,
O=C1C(SCCO)=C(SCCO)C(=O)c2ccccc21 [VK3-231],,,smaller effects,resulted even more free radicals as compared with the control,,,
O=C1C(SCC(O)CO)=C(SCC(O)CO)C(=O)c2ccccc21 (centres unmarked) [VK3-232],,,no difference from that of the control,,,,
O=C1C(SCCCCCCO)=C(SCCCCCCO)C(=O)c2ccccc21 [VK3-233-2d],capable of enhancing the aggregation of Aβ1-40,converted to β-sheet structure,no difference from that of the control,resulted even more free radicals as compared with the control,,,
